# Measurements: patent US20120128628A1, “COMBINATION OF A NUCLEOSIDE POLYMERASE INHIBITOR WITH A MACROCYCLIC PROTEASE INHIBITOR AND USE THEREOF IN THE TREATMENT OF HEPATITIS C, LIVER FIBROSIS AND IMPAIRED LIVER FUNCTION (as amended)” (priority 2009, published 2012)
# Columns and labels:
# HCV replication = settings: cited from earlier work
# [1] = test system: chronic hepatitis C genotype 1; assay: HCV RNA viral load determination (COBAS AmpilPrep/COBAS Taqman HCV Test RUO) in a dose ranging study in patients; assay type: in vivo, Hepatitis C virus; settings: monotherapy 750 mg, bid; after 7 days of treatment
# Procedure: A randomized, double-blind, placebo controlled, dose ranging study of Compound 1a and Compound 2 in adult patients with chronic hepatitis C genotype 1 was conducted. Approximately 54 treatment naïve males and females between 18 and 65 years of age (inclusive) with genotype 1 HCV infection who had not previously been treated with an interferon or investigational HCV therapeutic agent were enrolled. Approximately an additional 20 treatment patients who had failed treatment with the current standard of care (null, partial responders and relapsers) were enrolled. […] Subjects with liver cirrhosis or incomplete/transition to cirrhosis, or other forms of liver disease, anemia, HIV or HBV infection, hepatocellular carcinoma, cardiac disease or renal disease were excluded from this particular protocol, as well as pregnant or lactating women, women of childbearing potential, and male partners of women who are pregnant or lactating.
# Seven groups, Groups I, II, III, IV, V, VI and VII, of subjects were studied. Blood samples were collected at time points to determine pharmacokinetics parameters, including Tmax, Cmax, Kel, T1/2, AUC, CL/F, Vd/F and accumulation ratio.
# The specifics of Groups I, II, III, IV, V, VI and VII are shown in Table 1 below and pictorially in FIGS. 2 and 3. Group I included two arms with 8 subjects in Arm 1 and 8 subjects in Arm 2. […]
# [2] = prodrug compared to Compound 1; cited from earlier work
Compound,inhibiting HCV replication (HCV replication),mean log change from baseline of HCV RNA viral load [1] [log10 IU/mL],anti-viral efficacy (HCV replication; prodrug compared to Compound 1),permeability [2],plasma exposure [2]
"CC(C)(C)OC(=O)N[C@H]1CCCCCC=C[C@@H]2C[C@@]2(C(=O)NS(=O)(=O)C2CC2)NC(=O)[C@@H]2C[C@@H](OC(=O)N3Cc4cccc(F)c4C3)CN2C1=O [Compound 2, (1S,4R,6S,14S,18R)-4-Fluoro-1,3-dihydro-isoindole-2-carboxylic acid 14-tert-butoxycarbonylamino-4-cyclopropanesulfonylaminocarbonyl-2,15-dioxo-3,16-diaza-tricyclo[14.3.0.04,6]nonadec-7-en-18-yl ester]",effective in inhibiting HCV replication,,,,
"C[C@@]1(F)[C@H](O)[C@@H](CO)O[C@H]1n1ccc(N)nc1=O [Compound 1, β-D-2′-deoxy-2′-fluoro-2′-C-methylcytidine]",effective in inhibiting HCV replication,,,,
diisobutyl ester prodrug of β-D-2′-deoxy-2′-fluoro-2′-C-methylcytidine [Compound 1a],,−1.3,improved anti-viral efficacy,increased permeability,increased plasma exposure
